Measured values: patent EP3427727A1, “COMBINATION OF BIOLOGICALLY ACTIVE SUBSTANCES FOR STABILIZING OR INCREASING THE COLLAGEN CONTENT” (BioActive Food GmbH, priority 2017, dated 2019)

Test system: Kollagen-Synthese
Assay: Cellular test of collagen synthesis (method of Suh et al.; Biocolor collagen assay, detects collagen types I-IV)
Format: cell-based
Text: In einem zellulären Test wurde die Wirkung von Vitamin K1 und Lutein auf die Kollagen-Synthese untersucht. Die Untersuchung erfolgte nach dem in Suh et al. (Biol Pharm Bull. 2009 Apr; 32(4):746-9) beschriebenen Verfahren. Das gebildete Kollagen wurde mit Hilfe eines Standardassays (Firma Biocolor Ltd., Carrickfergus, Großbritannien) bestimmt. Der Assay war in der Lage, Kollagen des Typs I-IV zu erfassen.

| SMILES | activity at 2 µM (Lutein 2 µM, Kontrolle = 100 %, read-out: Kollagen (relativ)) | activation at 2 µM (Lutein 2 µM, increase over control, read-out: Erhöhung (Kollagen)) | activity at 0.5 µM (Vitamin K 0,5 µM, Kontrolle = 100 %, read-out: Kollagen (relativ)) | activation at 0.5 µM (Vitamin K 0,5 µM, increase over control, read-out: Erhöhung (Kollagen)) |
| --- | --- | --- | --- | --- |
| CC1=C[C@H](O)CC(C)(C)[C@H]1/C=C/C(C)=C/C=C/C(C)=C/C=C/C=C(C)/C=C/C=C(C)/C=C/C1=C(C)C[C@@H](O)CC1(C)C [Lutein, (3R,6'R)-β-ε-Carotin-3,3'-diol] | 105% | 5% | – | – |
| CC1=C(C/C=C(\C)CCC[C@H](C)CCC[C@H](C)CCCC(C)C)C(=O)c2ccccc2C1=O [Vitamin K, Vitamin K1] | – | – | 116% | 16% |
